Measurements published in patent US20100173910A1, “TRIAMINOPYRIMIDINE CYCLOBUTENEDIONE DERIVATIVES USED AS PHOSPHATASE CDC25 INHIBITORS” (IPDRN PHSTMS D.S.S., priority 2007, published 2010).

Legend:
[1] = tested on: MIA PaCa-2 (human pancreatic carcinoma cells); assay: Anti-proliferative activity, MIA PaCa-2 cells (WST1 colorimetric test); format: cell-based; conditions: MIA PaCa-2, 96 h, 96 hours treatment, up to 10 μM, nested upper bounds, read-out: IC50 for proliferation of the MIA PaCa-2 cell lines
Description: (§1) ii) Characterisation of Anti-Proliferative Activity:
(§2) By way of an example, the effect of treating two human cell lines MIA PaCa-2 and DU 145 with the compounds of the examples described hereinbefore will be studied. The cell lines DU 145 (human prostate carcinoma cells) and MIA PaCa-2 (human pancreatic carcinoma cells) were obtained from the American Tissue Culture Collection (Rockville, Md., USA). A 96-well plate was inoculated on day 0 with cells in 80 μl of Dulbecco's modified Eagle's medium (Gibco-Brl, Cergy-Pontoise, France) with 10% heat-inactivated foetal calf serum (Gibco-Brl, Cergy-Pontoise, France), 50,000 units/l of penicillin and 50 mg/l of streptomycin (Gibco-Brl, Cergy-Pontoise, France) and 2 mM of glutamine (Gibco-Brl, Cergy-Pontoise, France). The cells were treated on day 1 for 96 hours with increasing concentrations of each test compound up to 10 μM. At the end of this period, cell proliferation is quantified by means of a colorimetric test based on cleavage of the tetrazolium salt WST1 by the mitochondrial dehydrogenases in the viable cells, resulting in formation of formazan (Boehringer Mannheim, Meylan, France). These tests are performed in duplicate with 8 determinations per concentration tested. For each test compound, the values within the linear part of the sigmoid curve were subjected to linear regression analysis and used to estimate the IC50 inhibitory concentration. The products are solubilised in dimethylsulfoxide (DMSO) at a concentration of 10^−2 M and used in culture with a final DMSO concentration of 0.1%.

[2] = target: T1, purified recombinant CDC25C enzyme (MBP-CDC25C protein) (Homo sapiens, UniProt P30307); assay: Phosphatase activity of the purified recombinant CDC25C enzyme (OMFP dephosphorylation, fluorescence); format: biochemical; conditions: OMFP 500 μM, 4 hours at 30° C., three independent experiments; nested upper bounds; read-out: IC50 for the phosphatase activity of the purified recombinant CDC25-C enzyme
T1 construct: made in house
T1 sequence (P30307 1-473): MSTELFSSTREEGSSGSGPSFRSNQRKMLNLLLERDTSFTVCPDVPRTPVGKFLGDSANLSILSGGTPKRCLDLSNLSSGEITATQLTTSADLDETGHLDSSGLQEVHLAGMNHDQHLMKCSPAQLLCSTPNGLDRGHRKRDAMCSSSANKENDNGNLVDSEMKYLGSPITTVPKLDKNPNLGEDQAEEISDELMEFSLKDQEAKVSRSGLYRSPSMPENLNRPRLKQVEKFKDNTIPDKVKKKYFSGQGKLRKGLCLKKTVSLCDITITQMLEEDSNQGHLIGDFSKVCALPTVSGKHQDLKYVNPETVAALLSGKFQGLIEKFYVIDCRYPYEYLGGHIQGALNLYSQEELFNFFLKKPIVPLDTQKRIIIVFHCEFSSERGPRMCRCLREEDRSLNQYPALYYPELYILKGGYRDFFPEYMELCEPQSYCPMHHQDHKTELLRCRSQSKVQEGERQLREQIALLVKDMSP
Description: i) Determination of the Phosphatase Activity of the Purified Recombinant CDC25C Enzyme:
The phosphatase activity of the MBP-CDC25C protein is evaluated through its dephosphorylation of 3-O-methylfluorescein-phosphate (OMFP) to form 3-O-methylfluorescein (OMF), determining the fluorescence of the reaction product at 475 nm. This assay can be used to identify inhibitors of the recombinant CDC25 enzyme. The preparation of the MBP-CDC25C fusion protein is described in the PCT patent application published under the number WO 01/44467.
The reaction is performed in 384-well plates in a final volume of 50 μl. The MBP-CDC25C protein (prepared as described hereinabove) is stored in the following elution buffer: 20 mM Tris-HCl pH 7.4; 250 mM NaCl; 1 mM EDTA; 1 mM dithiothreitol (DTT); 10 mM maltose. It is diluted to a concentration of 60 μM in the following reaction buffer: 50 mM Tris-HCl pH 8.2; 50 mM NaCl; 1 mM DTT; 20% glycerol. The background noise is determined using with the buffer without adding the enzyme. The products are tested at decreasing concentrations from 40 μM. The reaction is initiated by the addition of OMFP solution to a final concentration of 500 μM (prepared immediately before use from a 12.5 mM stock solution in 100% DMSO (Sigma #M2629)). After 4 hours at 30° C. in a disposable 384-well plate, the fluorescence measured at OD 475 nm is read on a Victor^2 plate reader (EGG-Wallac). The concentration that produces 50% inhibition of the enzyme reaction is calculated from three independent experiments. Only the values that fall within the linear part of the sigmoid curve are used for the linear regression analysis.

[3] = tested on: DU 145 (human prostate carcinoma cells); assay: Anti-proliferative activity, DU 145 cells (WST1 colorimetric test); format: cell-based; conditions: DU-145, 96 h, 96 hours treatment, up to 10 μM, nested upper bounds, read-out: IC50 for proliferation of the DU 145 cell lines
Description: as §1, §2

IC50 [1] [µM]	IC50 [2] [µM]	IC50 [3] [µM]	melting point [°C]	Structure (SMILES)
≤ 10	≤ 1	≤ 10	246 to 248	O=c1c(NCCNc2cc(N3CCCC3)nc(N3CCCC3)n2)c(NCc2ccc(Cl)cc2)c1=O [Example 5, 3-[(4-chlorobenzyl)amino]-4-({2-[(2,6-dipyrrolidin-1-ylpyrimidin-4-yl)amino]ethyl}amino)cyclobut-3-ene-1,2-dione]
≤ 10	≤ 1	≤ 10	176 to 180	CC(C)(C)OC(=O)NCc1ccc(Nc2c(NCCNc3cc(N4CCCC4)nc(N4CCCC4)n3)c(=O)c2=O)cc1 [Example 25, tert-butyl (4-{[2-({2-[(2,6-dipyrrolidin-1-ylpyrimidin-4-yl)amino]ethyl}amino)-3,4-dioxocyclobut-1-en-1-yl]amino}benzyl)carbamate]
